Experimental data: patent publication US5342842A, “Pyrimidone derivatives and analogs in the treatment of asthma or certain skin disorders” (Pfizer Inc., priority 1992, dated 1994)

How the values were obtained:
human PDE [1] = test: Inhibition of PDE in intact human peripheral blood leukocyte preparation (human PDE assays, Dr. Hanifin); type: cell-based
Text: (§1) See Grewe et al., J. Allergy Clin. Immunol., v. 70, pp. 452-457, 1982. […] Dr. Hanifin has a source of human PDE isolated from mononuclear leukocyte. They were approached and readily agreed to test 5-[3-(exo-bicyclo[2.2.1]hept-2-yloxy)-4-methoxyphenyl]-3,4,5,6-tetrahydropyrimidin-2(1H)-one in their human PDE assays (see Cooper et al., cited above).

[2] = system: antigen-induced skin edema; test: Inhibition of skin edema in guinea pigs sensitized to ovalbumin; type: in vivo, guinea pig; conditions: 32 mg/Kg oral
Experimental: Four guinea pigs (Hartley, male, 350-400 g) were sensitized with anti-ovalbumin IgG1 antibody. Two guinea pigs were orally dosed with 32 mg/Kg of the test compound and two other guinea pigs were dosed with vehicle (2% Tween-80). One-hour after dosing, each guinea pig was injected intraveneously with 1 ml of Evan Blue (7 mg/ml) and then his skin was challenged intradermally with 0.1 ml of ovalbumin (0.1%) or PBS. Twenty minutes after challenge, the skin was removed and skin edematous site (circular blue spots at challenge sites) was examined visually.

[3] = system: Eosinophil Migration into Sensitized Lung Tissue; test: Inhibition of eosinophil migration into sensitized lung tissue challenged with antigen in guinea pigs (specific EPO response in lung lavage); type: in vivo, guinea pig; conditions: Cavia porcellus, po, P.O., guinea pigs sensitized with anti-OA IgG1, ovalbumin aerosol challenge, lavage after 18 hours
Experimental: Normal Hartley guinea pigs (300-350 grams) delivered from Charles River Laboratories were housed 5-7 days before sensitization. Guinea pigs were then sensitized with 0.5 mg/kg anti-OA IgG1 or saline as control. After 48-72 hours, guinea pigs were dosed P.O. in groups of six animals each with compounds at up to 32 mg/kg using 2% Tween 80 as vehicle. After 1-1.5 hours the animals were injected i.p. with 5 mg/kg pyrilamine. Thirty minutes following pyrilamine administration, animals were exposed to 10 minutes of a 0.1% ovalbumin (OA) aerosol followed by a 15 minute cloud decay period in a Tri-R Airborne Infection Apparatus (Compression air flow =20 L/min, main air flow =8.4 L/min). Guinea pigs were removed from the apparatus and caged for 18 hours prior to sacrifice and the following lung lavage procedure. […]
The aliquoted sample with Triton was diluted with 1 ml PBS/0.1% Triton buffer (pH 7.0). […] The O.D. of the mixture was measured at 490 nm, with background O.D. (blank tube) subtracted out.
Duplicate O.D. readings were averaged to obtain a single value for each animal. Average O.D. ± standard error is calculated using the six obtained values within each group of animals. Specific EPO response due to antigen challenge is calculated by: [formula] Percent inhibition of specific EPO response due to drug pretreatment is calculated by: [formula]

human PDE [4] = test: Inhibition of PDE in leukocyte homogenate preparation (human PDE assays, Dr. Hanifin); type: biochemical
Text: as §1

[5] = target: Pulmonary Phosphodiesterase (PDEIV); test: Inhibition of pulmonary phosphodiesterase (PDEIV) from guinea pig lung, [3H]cAMP hydrolysis; type: biochemical; conditions: 1 μM [3H]-cAMP, 37° C., 10 minutes, 1% DMSO, read-out: IC50, concentration which inhibits 50% of specific hydrolysis of [3H]cAMP to [3H]5' AMP
Experimental: Lung tissue from guinea pigs was placed in a homogenization buffer solution (20 mM Bistris, 5 mM 2-mercaptoethanol, 2 mM benzamidine, 2 mM EDTA, 50 mM sodium acetate, pH 6.5) at a concentration of 10 ml/gm of tissue. The tissue was homogenized using a Tekmar Tissumizer at full speed for 10 seconds. Phenylmethylsulfonyl fluoride (PMSF, 50 mM in 2-propanol) was added to the buffer immediately prior to homogenization to give a final PMSF concentration of 50μM. The homogenate was centrifuged at 12,000×g for 10 minutes at 4° C. The supernatant was filtered through gauze and glass wool and then applied to a 17×1.5 cm column of DEAE-Sepharose CL-6B, pre-equilibrated with homogenization buffer, at 4° C. A flow rate of 1 ml/min was used. After the supernatant had passed through the column, the column is washed with a volume of homogenization buffer at least two times that of the supernatant. […] Fractions were saved based on specific PDEIV activity, determined by [^3 H]cAMP hydrolysis and the ability of a […]. […]
The reaction tubes were shaken and placed in a water bath (37° C.) for 10 minutes, at which time the reaction was stopped by placing the tubes in a boiling water bath for 2 minutes. […] After vortexing, 1 ml of the elution was added to 3 ml Atomlight scintillation fluid in an appropriate vial, vortexed, and counted for [^3 H].
Percent inhibition is determined by the formula: [formula] […]

COc1ccc(C2CNC(=O)NC2)cc1O[C@@H]1C[C@H]2CC[C@@H]1C2 (relative stereo) [5-[3-(exo-bicyclo[2.2.1]hept-2-yloxy)-4-methoxyphenyl]-3,4,5,6-tetrahydropyrimidin-2(1H)-one]
potency in inhibiting PDE compared to Ro-20-1724 (human PDE [1]; intact human peripheral blood leukocyte preparation, compared to Ro-20-1724): even greater potency than Ro-20-1724 | IC50 (human PDE [1]; intact human peripheral blood leukocytes): 300 nM | intensity and area of blue spots at antigen-challenged skin sites as compared to vehicle-dosed animals ([2]; two guinea pigs, intradermal ovalbumin (0.1%), 20 minutes after challenge, visual examination): markedly reduced | effectiveness against antigen-induced skin edema in guinea pigs ([2]; conclusion of the test): effective against antigen-induced skin edema in guinea pigs | ED50 [3]: 10 mg/kg | IC50 (human PDE [4]; human leukocyte homogenate preparation): 200 nM | potency in inhibiting PDE compared to Ro-20-1724 (human PDE [4]; leukocyte homogenate preparation, compared to Ro-20-1724): even greater potency than Ro-20-1724 | IC50 [5]: 500 nM
